From PMC9964544, “Evidence of Insulin-Sensitizing and Mimetic Activity of the Sesquiterpene Quinone Avarone, a Protein Tyrosine Phosphatase 1B and Aldose Reductase Dual Targeting Agent from the Marine Sponge Dysidea avara” (Pharmaceutics, 2023)
Read-outs that look alike come from different tables or passages of the source. Each block holds one compound with its values, some of them ahead of it.

What was measured:
human recombinant AKR1B1 [1] = molecular target: T1, human recombinant AKR1B1 (Homo sapiens, UniProt P15121); assay: AKR1B1 inhibition assay with L-idose as substrate, NADPH oxidation (IC50); assay type: biochemical; settings: 10 mU AKR1B1, 1.6 mM L-idose, 37 °C; IC50 ± SD
T1 construct: made in house
Protocol: (§1) The purification of human recombinant AKR1B1 was performed as previously described. […] The purified enzyme, stored at −80 °C in 10 mM sodium phosphate buffer pH 7.0 containing 2 mM DTT and 30% (w/v) glycerol, was extensively dialyzed against 10 mM sodium phosphate buffer pH 7.0 before use. […] The fractions containing PTP1B were collected, concentrated, and injected into a Superdex G75 column equilibrated with Tris-HCl buffer pH 8.0 containing 150 mM NaCl and 1 mM mercaptoethanol. The fractions containing PTP1B were collected and concentrated; the purity of preparation was evaluated using SDS-PAGE. The PTP1B preparation was split into fractions of 0.5 mL volume; each fraction was stored at −80 °C.
(§2) The standard assay mixture (final volume 0.7 mL) was contained in 0.25 M sodium phosphate buffer pH 6.8, 0.18 mM NADPH, 0.4 M ammonium sulfate, 0.5 mM EDTA, and 4.7 mM GAL. One unit of enzyme activity is the amount of enzyme that catalyzes the conversion of 1 µmol of substrate/min in the above assay conditions. The same assay conditions were adopted in the inhibition studies using L-idose as the substrate at the indicated concentrations. PTP1B activity was determined using p-nitrophenylphosphate (pNPP) as the synthetic substrate. The pNPP was dissolved in 0.075 M ββ-dimethylglutarate buffer, pH 7.0, containing 1 mM dithiothreitol. Each assay was carried out at 37 °C in 1 mL of assay buffer. The reactions were started by diluting an aliquot of PTP1B preparation in the assay buffer; after 30 min, the reactions were stopped by adding 2 mL of 0.2 M KOH solution. The amount of p-nitrophenol released was determined spectrophotometrically, reading the absorbance of solutions at 400 nm (ε400nm = 18 mM^−^1cm^−^1).

Human PTP1B [2] = molecular target: T2, Human PTP1B (Homo sapiens, UniProt P18031); assay: PTP1B inhibition assay with pNPP as substrate (IC50); assay type: biochemical; parameters: polyHis (N); made in house; settings: 2.5 mM pNPP, 37 °C; IC50 ± SD
T2 sequence (P18031 1-302): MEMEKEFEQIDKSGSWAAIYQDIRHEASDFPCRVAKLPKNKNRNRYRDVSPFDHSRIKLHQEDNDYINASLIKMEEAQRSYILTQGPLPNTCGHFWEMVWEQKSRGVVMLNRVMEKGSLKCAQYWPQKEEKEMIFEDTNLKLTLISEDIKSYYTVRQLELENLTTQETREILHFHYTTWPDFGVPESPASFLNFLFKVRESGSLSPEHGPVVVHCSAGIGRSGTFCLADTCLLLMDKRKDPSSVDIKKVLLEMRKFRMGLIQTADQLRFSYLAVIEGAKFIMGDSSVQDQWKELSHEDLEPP
Protocol: as §1, §2

Human PTP1B [3] = molecular target: T2, Human PTP1B; parameters: polyHis (N); made in house; settings: cited from earlier work; for IC50: IC50 ± SD
C2C12 cells [4] = assay: Glucose uptake assay (2-NBDG, flow cytometry) in C2C12 cells; assay type: cell-based; settings: 2 h 10 mM cytochalasin B
Protocol: To evaluate the impact of avarone (2) on the insulin signaling pathway, C2C12 cells were plated on P35 dishes and grown until 70% confluence. Then, cells were washed with phosphate-buffered saline (PBS) and incubated for 24 h in the presence of a starvation medium (DMEM high glucose containing 2 mM glutamine, 100 U/mL of penicillin, and 100 μg/mL of streptomycin). After this time, cells were stimulated for 30 min with 10 nM insulin (Humulin R, Ely Lilly, Italy) with avarone (2) or the insulin-avarone combination. After this time, cells were washed with cold PBS and lysed using 100 µL of 1X Laemmli sample buffer solution (50 mM Tris-HCl pH 6.8, 2% SDS, 10% glycerol, 1% β-mercaptoethanol, 12.5 mM EDTA, 0.02% bromophenol blue). Cell proteins were withdrawn, transferred in an Eppendorf tube and boiled for 5 min. All samples were stored at −20 °C before the analysis. Analysis of samples was carried out using SDS-PAGE; after electrophoresis, proteins were transferred on a PVDF membrane by Western blot. Phosphorylation levels of the insulin receptor β chain and of the kinase Akt were evaluated using specific antibodies: IR β subunit, clone CT-3 (MABS65) was from Santa Cruz Biotechnology (Santa Cruz, CA, USA); pIR β subunit, Y1162/1163 (sc-25103-R) was from Merck-Millipore (Burlington, MA, USA). Akt (9272S) and p-Akt (9271S) antibodies were from Cell Signaling Technology (Danvers, MA, USA). Finally, β-actin and clone C-4 (sc-47778) were from Merck-Millipore (Burlington, MA, USA). Anti-rabbit and anti-mouse secondary antibodies were from Santa Cruz Biotechnology (Santa Cruz, CA, USA). Detection was performed using Clarity western ECL substrates (BioRad Laboratories, Inc. 1000 Alfred Nobel DriveHercules, CA, USA). Quantitation of the images obtained was carried out using iBright Analysis Software (Thermo Fisher Scientific 168 Third Avenue Waltham, MA, USA, 02451). Glucose uptake was evaluated as previously described. […] Intrinsic and 2-NBDG-derived cell fluorescences were determined using a flow cytometer (FACSCanto II, BD Biosciences, San Jose, CA, USA). […] Quantitative analysis was carried out using FlowJo software (FlowJo^TM v10. BD FlowJo™ Software for Windows Version 10. Ashland, OR: Becton, Dickinson and Company; 2021).
Figure 8 Glucose uptake assay. […] After, cells were washed with PBS, detached using trypsin, collected by centrifugation, and analyzed using a flow cytometer (FACSCanto II, BD Biosciences). […] For each experiment, 10,000 events were analyzed. […] (B) Quantitation of fluorescence levels. […]
Figure 9 Impact of cytochalasin B on avarone-induced glucose uptake. […] After, cells were washed and incubated for 3 h with 40 µM 2-NBDG and then analyzed using a flow cytometer (FACSCanto II, BD Biosciences). For each experiment, 10,000 events were analyzed. […]

3T3-L1 cells = test system: 3T3-L1 cells; parameters: method as in PMID 19262557, PMID 19091557; settings: ref [24],[27]; cited from earlier work
C2C12 cells [5] = assay: Seahorse XFe96 Mito Stress Test in C2C12 cells; assay type: cell-based; settings: affecting maximal respiration and ATP production-linked oxygen consumption
Protocol: C2C12 cells (3 × 10^4 cells/well) were placed in XFe96 cell culture plates. After 24 h of incubation at 37 °C, cell growth medium was substituted with an XF base medium supplemented with 2 mM glutamine, 1 mM sodium pyruvate, and 10 mM glucose, pH 7.4. The plate was then transferred in a non-CO2 incubator for 1 h at 37 °C to pre-equilibrate the cells before analysis. An XF Mito Stress Test was performed to assay the cells’ ability to exploit mitochondrial oxidative metabolism, according to the manufacturer’s instructions. The oxygen consumption rate (OCR) was evaluated after the injection of a sequence of compounds that interfere with the electron transport chain: oligomycin (1 μM), carbonyl cyanide-4 (trifluoromethoxy) phenylhydrazone (FCCP) (1 μM), and Rotenone/Antimycin A (0.5 μM). All data were normalized on the protein content of each well.
Figure 10 Results of Mito Stress Test assay. (A) C2C12 cells were subjected to Seahorse XFe96-Mito Stress Test analysis to evaluate oxygen consumption rate (OCR) in real time. OCR values were normalized on protein content. (B) Basal respiration, ATP-linked OCR, spare capacity, maximal respiration, and proton leak were calculated using data obtained from OCR plot after the administration of the adenosine triphosphate ATP synthase inhibitor oligomycin, the proton uncoupler carbonylcyanide p-trifluoromethoxyphenylhydrazone (FCCP), and the combination of the respiratory complex I inhibitor rotenone and the respiratory complex III inhibitor antimycin A. Each point reported in the OCR plot represents the medium value ± SEM obtained from independent replicates (n = 3 or 4). One-way ANOVA with Dunnett’s correction was used to assess differences in experimental features by using Prism 8 software (GraphPad). Statistical significance is annotated as follows: * p ≤ 0.01, ** p ≤ 0.001, *** p ≤ 0.0001, (t-test); ns, not significant; FC, fold change.

human recombinant AKR1B1 [6] = molecular target: T1, human recombinant AKR1B1; parameters: method as in Demir et al. [17]; settings: ref Demir et al. [17]; cited from earlier work

Compound: CNC1=CC(=O)C(C[C@]2(C)[C@@H](C)CC[C@]3(C)C(C)=CCC[C@@H]23)=CC1=O [4-methylaminoavarone (4), 4-(methylamino)avarone]
IC50 (human recombinant AKR1B1 [1]): 62 ± 8 µM
IC50 (Human PTP1B [2]): 21.6 ± 1 µM

Compound: 21-dehydroxybolinaquinone [21-dehydroxybolinaquinone (6)]
IC50 (Human PTP1B [3]; ref Li et al. [27]): 39.5 µM

IC50 (human recombinant AKR1B1 [1]): 73 ± 15 µM
IC50 (Human PTP1B [2]): 15.2 ± 2.1 µM
Compound: CNC1=CC(=O)C=C(C[C@]2(C)[C@@H](C)CC[C@]3(C)C(C)=CCC[C@@H]23)C1=O [3-methylaminoavarone (3), 3-(methylamino)avarone]

Compound: C=C1[C@@H](C)[C@H]2[C@H](Cc3ccccc3)NC(=O)[C@]23OC(=O)/C=C/[C@H](O)CCC[C@@H](C)C/C=C/[C@H]3[C@@H]1O [Cytochalasin B, cytochalasin B, reference compound]
effect of preincubation on insulin-stimulated glucose uptake (C2C12 cells [4]; then 10 nM insulin 30 min): strongly affects insulin-stimulated glucose uptake
effect of preincubation on avarone-mediated glucose uptake (C2C12 cells [4]; then 25 µM avarone 30 min): abolishes the avarone-mediated glucose uptake

Compound: dysidine [dysidine (5)]
glucose uptake in 3T3-L1 cells (3T3-L1 cells): increase glucose uptake
IC50 (Human PTP1B [3]; ref Li et al. [27]): 6.7 ± 0.1 µM
selectivity over other PTPs (TC-PTP and CD45) (Human PTP1B [3]; ref [24],[27]): moderate selectivity
type of PTP1B inhibition (Human PTP1B [3]; ref [24],[27]): reversible slow-binding PTP1B inhibitor

Compound: N#C/C(=C\c1cn(-c2ccccc2)c2ccccc12)C(=O)O [UK5099, reference compound]
mitochondrial respiration (OCR) (C2C12 cells [5]): significant reduction in mitochondrial respiration

Compound: O=C1C=CC(=O)C=C1 [p-benzoquinone]
IC50 (Human PTP1B [3]; ref Zhang et al. [24]): 38.9 ± 5.2 µM
IC50 (human recombinant AKR1B1 [6]): 1.93 µM

IC50 (human recombinant AKR1B1 [1]): 0.52 ± 0.19 µM
IC50 (Human PTP1B [2]): 42.2 ± 18 µM
Compound: CC1=CCC[C@H]2[C@](C)(Cc3cc(O)ccc3O)[C@@H](C)CC[C@]12C [avarol (1), avarol]
